This note sets out measurements from patent US20240391948A1, “NOVEL COMPOUND THAT INHIBITS TNF-ALPHA GENERATION AND INFLAMMASOME ACTIVITY AND PREPARATION METHOD THEREFOR” (SHAPERON INC., priority 2021, published 2024).

Holding throughout (assay type): cell-based
Assay [1] concerns J774A.1 (Mouse BALB/c monocyte macrophage cell line) cells. The assay can be described thus: LPS-induced TNF-α secretion inhibition in J774A.1 cells. As to conditions: J774.A1, 1 μM compound, graded compared to taurodeoxycholic acid (positive control), read-out: TNF-α production inhibition grade. As for the experimental part:
(§1) To evaluate anti-inflammatory efficacy, an inflammatory response was induced in J774A.1 (Mouse BALB/c monocyte macrophage cell line) cells derived from mouse macrophages by LPS (lipopolysaccharide) and LPS+ATP (adenosine triphosphate), and the efficacy of taurine-bile acid derivatives to inhibit the production of inflammatory cytokines (IL-1β, TNF-α) was measured. After treating J774A.1 cells with 1 μM of a taurine-bile acid derivative, the degree to which the secretion of TNF-α among cytokines was suppressed was measured in the experimental group in which an inflammatory response was induced by LPS, and the extent to which IL-1β secretion among cytokines was suppressed was measured in the experimental group in which an inflammatory response was induced with LPS+ATP. The ability of taurine-bile acid derivatives to inhibit cytokine production was graded compared to taurodeoxycholic acid, a positive control. The grading criteria are A: over 100%, B: over 50% and under 100%, C: between 20% and under 50%, and D: under 20%.

Assay [2] relates to U937 cells (human monocytic cell line). The assay can be described thus: BzATP-induced IL-1β secretion inhibition in PMA-differentiated U937 cells. The following applies: U-937, U937 cells differentiated with PMA, read-out: IL-1β production inhibition grade (IC50). The method, boiled down:
(§2)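 Inhibition is given as IC50 (μM) in A-D bands, using distinct thresholds for TNF-α and for IL-1β. Secretion followed Pam2CSK4 stimulation (TNF-α) or BzATP stimulation (IL-1β) of compound-pretreated, PMA-differentiated U937 macrophages.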

In assay [3] the test system is J774A.1 (Mouse BALB/c monocyte macrophage cell line) cells. In words: LPS+ATP-induced IL-1β secretion inhibition in J774A.1 cells. The following applies: J774.A1, 1 μM compound, graded compared to taurodeoxycholic acid (positive control), read-out: IL-1β production inhibition grade. As for the experimental part:
as §1

The test system of assay [4] is U937 cells (human monocytic cell line). In words: Pam2CSK4-induced TNF-α secretion inhibition in PMA-differentiated U937 cells. As to conditions: U-937, U937 cells differentiated with PMA, read-out: TNF-α production inhibition grade (IC50). The method, boiled down:
as §2

With `C[C@H](CCC(=O)N(CCS(=O)(=O)O)c1ccccc1)[C@H]1CC[C@H]2[C@@H]3CC[C@@H]4C[C@H](O)CC[C@]4(C)[C@H]3C[C@H](O)[C@]12C` [NC10052], the inhibition at 1 µM in assay [1] and in assay [3] was 50 to 100% each time. Further, the IC50 was in the range of 50 to 100 nM in assay [2] and 1000 to 2000 nM in assay [4].
Take `C[C@H](CCC(=O)NCCC(=O)O)[C@H]1CC[C@H]2[C@@H]3CC[C@@H]4C[C@H](O)CC[C@]4(C)[C@H]3CC[C@]12C` [NC10053]: the inhibition at 1 µM in assay [1] and in assay [3] was 50 to 100% each time. Besides, the IC50 in assay [2] lay in the range of 50 to 100 nM; in assay [4], 1000 to 2000 nM.
In the case of `C[C@H](CCC(=O)NCCCO)[C@H]1CC[C@H]2[C@@H]3CC[C@@H]4C[C@H](O)CC[C@]4(C)[C@H]3CC[C@]12C` [NC10054], the values for the inhibition at 1 µM in assay [1] and in assay [3] were below 20% and 50 to 100%, respectively. The IC50 was in the range of 50 to 100 nM in assay [2] and 1000 to 2000 nM in assay [4].
Regarding `C[C@H](CCC(=O)N(C)CCS(=O)(=O)O)[C@H]1CC[C@H]2[C@@H]3CC[C@@H]4C[C@H](O)CC[C@]4(C)[C@H]3CC[C@]12C` [NC10055], the inhibition at 1 µM in assay [1] was below 20%; in assay [3] it was 50 to 100%. The IC50 in assay [2] was below 50 nM; in assay [4] it was 1000 to 2000 nM.
On to `C[C@H](CCC(=O)N(CCS(=O)(=O)O)Cc1ccccc1)[C@H]1CC[C@H]2[C@@H]3CC[C@@H]4C[C@H](O)CC[C@]4(C)[C@H]3CC[C@]12C` [NC10056], for which the values for the inhibition at 1 µM in assay [1] and in assay [3] were 20 to 50% and 50 to 100%, respectively. For the same compound, the figures for the IC50 in assay [2] and in assay [4] were 50 to 100 nM and at least 2000 nM, respectively.
The corresponding values for `CC(C)N(CCS(=O)(=O)O)C(=O)CC[C@@H](C)[C@H]1CC[C@H]2[C@@H]3CC[C@@H]4C[C@H](O)CC[C@]4(C)[C@H]3CC[C@]12C` [NC10058] are below 20%, above 100%, below 50 nM and at least 2000 nM.
The corresponding values for `C[C@H](CCC(=O)N(CCS(=O)(=O)O)C1CCOCC1)[C@H]1CC[C@H]2[C@@H]3CC[C@@H]4C[C@H](O)CC[C@]4(C)[C@H]3CC[C@]12C` [NC10059] are below 20%, above 100%, below 50 nM and 1000 to 2000 nM.
The corresponding values for `C[C@H](CCC(=O)N1CCC[C@H](S(=O)(=O)O)C1)[C@H]1CC[C@H]2[C@@H]3CC[C@@H]4C[C@H](O)CC[C@]4(C)[C@H]3CC[C@]12C` [NC10060] are below 20%, 50 to 100%, at least 200 nM and at least 2000 nM.
In the case of `C[C@H](CCC(=O)N1CCC[C@@H](S(=O)(=O)O)C1)[C@H]1CC[C@H]2[C@@H]3CC[C@@H]4C[C@H](O)CC[C@]4(C)[C@H]3CC[C@]12C` [NC10061], the values for the inhibition at 1 µM in assay [1] and in assay [3] were below 20% and above 100%, respectively. Further, the IC50 in assay [2] is 100 to 200 nM; in assay [4], 500 to 1000 nM.
The corresponding values for `C[C@H](CCC(=O)N1CCC(S(=O)(=O)O)CC1)[C@H]1CC[C@H]2[C@@H]3CC[C@@H]4C[C@H](O)CC[C@]4(C)[C@H]3CC[C@]12C` [NC10062] are below 20%, above 100%, below 50 nM and 500 to 1000 nM.
With `C[C@H](CCC(=O)N1CC(S(=O)(=O)O)C1)[C@H]1CC[C@H]2[C@@H]3CC[C@@H]4C[C@H](O)CC[C@]4(C)[C@H]3CC[C@]12C` [NC10063], the inhibition at 1 µM in assay [1] is below 20%; in assay [3] it was above 100%. The IC50 in assay [2] is below 50 nM; in assay [4], 500 to 1000 nM.
The corresponding values for `C[C@H](CCC(=O)NC(C)(C)CS(=O)(=O)O)[C@H]1CC[C@H]2[C@@H]3CC[C@@H]4C[C@H](O)CC[C@]4(C)[C@H]3CC[C@]12C` [NC10064] are below 20%, below 20%, below 50 nM and below 500 nM.
The corresponding values for `C[C@H](CCC(=O)N[C@@H](Cc1ccccc1)CS(=O)(=O)O)[C@H]1CC[C@H]2[C@@H]3CC[C@@H]4C[C@H](O)CC[C@]4(C)[C@H]3CC[C@]12C` [NC10065] are below 20%, above 100%, 100 to 200 nM and 1000 to 2000 nM.
The corresponding values for `C[C@H](CCC(=O)N[C@H](Cc1ccccc1)CS(=O)(=O)O)[C@H]1CC[C@H]2[C@@H]3CC[C@@H]4C[C@H](O)CC[C@]4(C)[C@H]3CC[C@]12C` [NC10066] are below 20%, above 100%, below 50 nM and 1000 to 2000 nM.
`CC(C)[C@@H](CS(=O)(=O)O)NC(=O)CC[C@@H](C)[C@H]1CC[C@H]2[C@@H]3CC[C@@H]4C[C@H](O)CC[C@]4(C)[C@H]3CC[C@]12C` [NC10067]: the inhibition at 1 µM in assay [1] and in assay [3] was below 20% in each case. Also, the IC50 was at least 200 nM in assay [2] and 1000 to 2000 nM in assay [4].
As to `CC(C)[C@H](CS(=O)(=O)O)NC(=O)CC[C@@H](C)[C@H]1CC[C@H]2[C@@H]3CC[C@@H]4C[C@H](O)CC[C@]4(C)[C@H]3CC[C@]12C` [NC10068], the inhibition at 1 µM in assay [1] was below 20%; in assay [3], above 100%. The IC50 in assay [2] is below 50 nM; in assay [4], below 500 nM.
The corresponding values for `C[C@H](CCC(=O)N[C@H](CS(=O)(=O)O)c1ccccc1)[C@H]1CC[C@H]2[C@@H]3CC[C@@H]4C[C@H](O)CC[C@]4(C)[C@H]3CC[C@]12C` [NC10069] are below 20%, above 100%, below 50 nM and below 500 nM.
The corresponding values for `C[C@H](CCC(=O)N[C@H](c1ccccc1)[C@H](C)S(=O)(=O)O)[C@H]1CC[C@H]2[C@@H]3CC[C@@H]4C[C@H](O)CC[C@]4(C)[C@H]3CC[C@]12C` [NC10070] are 50 to 100%, above 100%, below 50 nM and below 500 nM.
The corresponding values for `C[C@H](CCC(=O)N[C@H](Cc1ccccc1)CS(=O)(=O)O)[C@H]1CC[C@H]2[C@@H]3CC[C@@H]4C[C@H](O)CC[C@]4(C)[C@H]3CC[C@]12C` [NC10071] are below 20%, above 100%, below 50 nM and below 500 nM.
Regarding `CC(C)[C@@H](CS(=O)(=O)O)NC(=O)CC[C@@H](C)[C@H]1CC[C@H]2[C@@H]3CC[C@@H]4C[C@H](O)CC[C@]4(C)[C@H]3CC[C@]12C` [NC10072], the inhibition at 1 µM in assay [1] was below 20%; in assay [3] it was 20 to 50%. For the same compound, the IC50 in assay [2] was below 50 nM; in assay [4], below 500 nM.

One may read the inhibition as how much of the control response was suppressed. For orientation: IC50 means the point on the concentration scale where inhibition reaches its midpoint.
